The nature of this data set: recombinant UMI read abundance after kanamycin selection (control-corrected) (log10(CPM+1)); higher = more efficient recombination; extreme values may be limits of the assay; sequences stand for … in AGTGCAGAGAAAATCGGCCAGTTTTCTCTGCCTGCAGTCCGCATGCCGTGGGACCCCTTGGGTTCTAACCTGTTGCCTAGATTTATGCAGCGGACTGCCTTTCTCCCAAAGTGATAAACCGG…AGGTTGGTTTCACT; site = the 11-nt donor. In a few lines:
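In Escherichia coli, a pool of donor and donor-binding-loop pairs, each with a 12-nt UMI, was tested for the IS621 bridge recombinase. Plating was on IPTG (0.07 mM) plus kanamycin, or without selection, in two replicates. Recombinant UMIs were amplified by PCR across the donor–target junction and sequenced, and counts were reported as log10(CPM+1) after averaging and control-derived scaling.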
With “ATAGTTTCATGGACCGGTTTTCCCGGTAATCCGTATTTGAC (site ATAGTTTCTGT)”, the “recombinant UMI read abundance (log10)” value was 2.62. Turning to “ATAGTTTCATGGACCGGTTTTCCCGGTAATCCGTATTTGAC (site CTAGTATCTGT)”, the “recombinant UMI read abundance (log10)” value amounted to 2.45. As to “ATATCGGCATGGACCGGTTTTCCCGGTAATCCGTATTTGGT (site ATATCGGCTAC)”, the “recombinant UMI read abundance (log10)” value worked out at 0.889. With “ATATGACCATGGACCGGTTTTCCCGGTAATCCGTATTTGAC (site ATATGACCTGT)”, the “recombinant UMI read abundance (log10)” value worked out at 0. With “ATATGATCATGGACCGGTTTTCCCGGTAATCCGTATTTGGG (site ATATGATCTCC)” the figure was 1.26; with “ATATGGCCATGGACCGGTTTTCCCGGTAATCCGTATTTGAC (site ATAAGGCCTGT)”, 0. For the sequence “ATATGGCCATGGACCGGTTTTCCCGGTAATCCGTATTTGAC (site ATACGGCCTGT)”, the “recombinant UMI read abundance (log10)” value was 0.

As for “ATATGGCCATGGACCGGTTTTCCCGGTAATCCGTATTTGAC (site ATAGGGCCTGT)”, the “recombinant UMI read abundance (log10)” value is 0. “ATATGGCCATGGACCGGTTTTCCCGGTAATCCGTATTTGAC (site ATATGGCCTGT)”: the “recombinant UMI read abundance (log10)” value was 0.

In the case of “ATATTCGCATGGACCGGTTTTCCCGGTAATCCGTATTTGCT (site ATATTCGCTAG)”, the “recombinant UMI read abundance (log10)” value worked out at 2.58. With “ATCAAAGCATGGACCGGTTTTCCCGGTAATCCGTATTTGAG (site ATCAAAGCTCT)” the figure was 2.17.

On to “ATCAAAGCATGGACCGGTTTTCCCGGTAATCCGTATTTGAG (site ATCCAAGCTCT)”, for which the “recombinant UMI read abundance (log10)” value is 0.889. To “ATCAAAGCATGGACCGGTTTTCCCGGTAATCCGTATTTGAG (site ATCGAAGCTCT)” belongs 0.781. As for “ATCAAAGCATGGACCGGTTTTCCCGGTAATCCGTATTTGAG (site ATCTAAGCTCT)”, the “recombinant UMI read abundance (log10)” value amounted to 0.855. As to “ATCACATCATGGACCGGTTTTCCCGGTAATCCGTATTTGCG (site ATCACATCTCG)”, the “recombinant UMI read abundance (log10)” value was 2.31.

On to “ATCAGACCATGGACCGGTTTTCCCGGTAATCCGTATTTGCA (site ATCAGACCTTG)”, for which the “recombinant UMI read abundance (log10)” value came out at 0. Take “ATCAGGCCATGGACCGGTTTTCCCGGTAATCCGTATTTGAC (site ATAAGGCCTGT)”: the “recombinant UMI read abundance (log10)” value came out at 0. As for “ATCAGGCCATGGACCGGTTTTCCCGGTAATCCGTATTTGAC (site ATCAGGCCTGT)”, the “recombinant UMI read abundance (log10)” value amounted to 0. As to “ATCAGGCCATGGACCGGTTTTCCCGGTAATCCGTATTTGAC (site ATGAGGCCTGT)”, the “recombinant UMI read abundance (log10)” value was determined as 0. On to “ATCAGGCCATGGACCGGTTTTCCCGGTAATCCGTATTTGAC (site ATTAGGCCTGT)”, for which the “recombinant UMI read abundance (log10)” value amounted to 0. With “ATCAGGCCATGGACCGGTTTTCCCGGTAATCCGTATTTGAG (site ATCAGGCCTCT)” the figure was 0; with “ATCATGCCATGGACCGGTTTTCCCGGTAATCCGTATTTGCC (site ATCATGCCTGG)”, 0; with “ATCATTGCATGGACCGGTTTTCCCGGTAATCCGTATTTGAC (site ATCATTGCTGT)”, 1.48.

For the sequence “ATCATTTCATGGACCGGTTTTCCCGGTAATCCGTATTTGCA (site ATCATTTCTTG)”, the “recombinant UMI read abundance (log10)” value is 1.73. On to “ATCCAAGCATGGACCGGTTTTCCCGGTAATCCGTATTTGAC (site ATCCAAGCTAT)”, for which the “recombinant UMI read abundance (log10)” value was 0.937. For “ATCCAAGCATGGACCGGTTTTCCCGGTAATCCGTATTTGAC (site ATCCAAGCTCT)”, the “recombinant UMI read abundance (log10)” value came to 0.0101.

For the sequence “ATCCAAGCATGGACCGGTTTTCCCGGTAATCCGTATTTGAC (site ATCCAAGCTGT)”, the “recombinant UMI read abundance (log10)” value was determined as 1.73. To “ATCCAAGCATGGACCGGTTTTCCCGGTAATCCGTATTTGAC (site ATCCAAGCTTT)” belongs 0.767; to “ATCCAAGCATGGACCGGTTTTCCCGGTAATCCGTATTTGAG (site AACCAAGCTCT)”, 0.0115. With “ATCCAAGCATGGACCGGTTTTCCCGGTAATCCGTATTTGAG (site ACCCAAGCTCT)” the figure was 0.646; with “ATCCAAGCATGGACCGGTTTTCCCGGTAATCCGTATTTGAG (site AGCCAAGCTCT)”, 0.194; with “ATCCAAGCATGGACCGGTTTTCCCGGTAATCCGTATTTGAG (site ATACAAGCTCT)”, 0.0267.

Turning to “ATCCAAGCATGGACCGGTTTTCCCGGTAATCCGTATTTGAG (site ATCAAAGCTCT)”, the “recombinant UMI read abundance (log10)” value amounted to 0.429. Turning to “ATCCAAGCATGGACCGGTTTTCCCGGTAATCCGTATTTGAG (site ATCCAAACTCT)”, the “recombinant UMI read abundance (log10)” value is 1.09. Turning to “ATCCAAGCATGGACCGGTTTTCCCGGTAATCCGTATTTGAG (site ATCCAACCTCT)”, the “recombinant UMI read abundance (log10)” value was 0.00996. As to “ATCCAAGCATGGACCGGTTTTCCCGGTAATCCGTATTTGAG (site ATCCAAGCTAT)”, the “recombinant UMI read abundance (log10)” value worked out at 1.64. To “ATCCAAGCATGGACCGGTTTTCCCGGTAATCCGTATTTGAG (site ATCCAAGCTCA)” belongs 0.209; to “ATCCAAGCATGGACCGGTTTTCCCGGTAATCCGTATTTGAG (site ATCCAAGCTCC)”, 0.0127. As to “ATCCAAGCATGGACCGGTTTTCCCGGTAATCCGTATTTGAG (site ATCCAAGCTCG)”, the “recombinant UMI read abundance (log10)” value came to 0.141. Turning to “ATCCAAGCATGGACCGGTTTTCCCGGTAATCCGTATTTGAG (site ATCCAAGCTCT)”, the “recombinant UMI read abundance (log10)” value was determined as 0.799.

As for “ATCCAAGCATGGACCGGTTTTCCCGGTAATCCGTATTTGAG (site ATCCAAGCTGT)”, the “recombinant UMI read abundance (log10)” value amounted to 0. Regarding “ATCCAAGCATGGACCGGTTTTCCCGGTAATCCGTATTTGAG (site ATCCAAGCTTT)”, the “recombinant UMI read abundance (log10)” value worked out at 0.757. As for “ATCCAAGCATGGACCGGTTTTCCCGGTAATCCGTATTTGAG (site ATCCAATCTCT)”, the “recombinant UMI read abundance (log10)” value is 0.773.

“ATCCAAGCATGGACCGGTTTTCCCGGTAATCCGTATTTGAG (site ATCCACGCTCT)”: the “recombinant UMI read abundance (log10)” value worked out at 0.0466. Consider “ATCCAAGCATGGACCGGTTTTCCCGGTAATCCGTATTTGAG (site ATCCAGGCTCT)”, for which the “recombinant UMI read abundance (log10)” value came to 0.356. To “ATCCAAGCATGGACCGGTTTTCCCGGTAATCCGTATTTGAG (site ATCCATGCTCT)” belongs 0.0106. With “ATCCAAGCATGGACCGGTTTTCCCGGTAATCCGTATTTGAG (site ATCCCAGCTCT)” the figure was 0.0104. Take “ATCCAAGCATGGACCGGTTTTCCCGGTAATCCGTATTTGAG (site ATCCGAGCTCT)”: the “recombinant UMI read abundance (log10)” value was found to be 0.00838.

On to “ATCCAAGCATGGACCGGTTTTCCCGGTAATCCGTATTTGAG (site ATCCTAGCTCT)”, for which the “recombinant UMI read abundance (log10)” value stood at 0.357. On to “ATCCAAGCATGGACCGGTTTTCCCGGTAATCCGTATTTGAG (site ATCGAAGCTCT)”, for which the “recombinant UMI read abundance (log10)” value amounted to 0.00681.

As for “ATCCAAGCATGGACCGGTTTTCCCGGTAATCCGTATTTGAG (site ATCTAAGCTCT)”, the “recombinant UMI read abundance (log10)” value was 0.231.

For the sequence “ATCCAAGCATGGACCGGTTTTCCCGGTAATCCGTATTTGAG (site ATGCAAGCTCT)”, the “recombinant UMI read abundance (log10)” value was 0.0198.

The values are drawn from the supplement of paper PMC11208160.
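Also: IS621 bridge recombinase in Escherichia coli cells against a fixed T5 target plasmid.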
